Experimental findings from patent US20190040016A1, “INDOLE AND INDAZOLE COMPOUNDS AND THERAPEUTIC USES THEREOF” (REGENTS OF THE UNIVERSITY OF MINNESOTA, priority 2016, published 2019) are described below.

Test [1] concerns MDA-MB-231 (a human triple negative breast cancer cell line). As to the kind of experiment: In vitro cytotoxicity evaluation, MDA-MB-231. The class given is cell-based. Conditions: MDA-MB-231 cells, average ± SEM of minimum three individual experiments. An excerpt: (§1) […] Cell line MDA-MB-231 (a human triple negative breast cancer cell line) and cell line 4T1 (a metastatic murine breast cancer cell line) were used for testing.

Test [2] deals with 4T1 (a metastatic murine breast cancer cell line). In words: In vitro cytotoxicity evaluation, 4T1. It is filed as cell-based. The settings on record: Mus musculus; 4T1 cells; average ± SEM of minimum three individual experiments.
Text: as §1

As to `COC(=O)C(O)(CO)COC(=O)c1nn(-c2ccc(N(Cc3ccc(OC)cc3)Cc3ccc(OC)cc3)cc2)c2ccccc12` (centres unmarked) [Compound A-10], the IC50 in test [1] was found to be 4.96 ± 1.19 µM; in test [2], 7.12 ± 1.13 µM.
In the same order, the values of `C=C(COC(=O)c1nn(-c2ccc(N(Cc3ccc(F)cc3)Cc3ccc(F)cc3)cc2)c2ccccc12)C(=O)OC` [Compound A-7] are greater than 25 µM and 10.8 ± 2.28 µM.
`COC(=O)C(O)(CO)COC(=O)c1nn(-c2ccc(N(Cc3ccccc3)Cc3ccccc3)cc2)c2ccccc12` (centres unmarked) [Compound A-4]: the IC50 in test [1] was 2.33 ± 0.48 µM; in test [2], 4.9 ± 0.42 µM.
Regarding `COC(=O)C(O)(CO)COC(=O)c1nn(-c2ccc(N(Cc3ccc(Cl)cc3)Cc3ccc(Cl)cc3)cc2)c2ccccc12` (centres unmarked) [Compound A-6], the values for the IC50 in test [1] and in test [2] were 4.51 ± 0.95 µM and 4.8 ± 1.01 µM, respectively.
In the same order, the values of `C=C(COC(=O)c1nn(-c2ccc(N(Cc3ccc(Cl)cc3)Cc3ccc(Cl)cc3)cc2)c2ccccc12)C(=O)OC` [Compound A-5] are greater than 25 µM and greater than 25 µM.
On the same counts, the results for `O=C(O)c1nn(-c2ccc(N(Cc3ccccc3)Cc3ccccc3)cc2)c2ccccc12` [Compound A-1] are greater than 25 µM and greater than 25 µM.
On to `COC(=O)c1nn(-c2ccc(N(Cc3ccccc3)Cc3ccccc3)cc2)c2ccccc12` [Compound A-2], for which the IC50 in test [1] and in test [2] was greater than 25 µM each time.
Take `C=C(COC(=O)c1nn(-c2ccc(N(Cc3ccccc3)Cc3ccccc3)cc2)c2ccccc12)C(=O)OC` [Compound A-3]: the half-maximal inhibitory concentration (IC50) in test [1] and in test [2] was greater than 25 µM each time.
Regarding `COC(=O)C(O)(CO)COC(=O)c1nn(-c2ccc(N(Cc3ccc(F)cc3)Cc3ccc(F)cc3)cc2)c2ccccc12` (centres unmarked) [Compound A-8], the values for the IC50 in test [1] and in test [2] were 3.02 ± 0.68 µM and 2.87 ± 0.86 µM, respectively.
On the same counts, the results for `C=C(COC(=O)c1nn(-c2ccc(N(Cc3ccc(OC)cc3)Cc3ccc(OC)cc3)cc2)c2ccccc12)C(=O)OC` [Compound A-9] are greater than 25 µM and greater than 25 µM.

By IC50 is commonly meant the point on the concentration scale where inhibition reaches its midpoint. A higher IC50 goes with weaker potency.
